Measurements: patent publication US10173990B2, “URAT1 inhibitor” (Nippon Chemiphar Co., Ltd., priority 2014, dated 2019)

Molecular target: URAT1 (Homo sapiens (Human), UniProt Q96S37)
Test: Uptake of [14C] uric acid using HEK-URAT1
Assay type: cell-based
Conditions: for remaining activity at 10 µM: 2 min, [14C] uric acid uptake into URAT1 stably expressed HEK293 cells, 10 μM test compound, 5 μM uric acid, 2 minutes, 37° C., uptake without test compound = 100%, read-out: % control (10 μM); for IC50: inhibition of [14C] uric acid uptake into URAT1 stably expressed HEK293 cells
Method: More specifically, the test is performed by culturing URAT1 stably expressed HEK293 cells (HEK-URAT1) or HEK293 cells transfected with empty vector (HEK-mock) in a DMEM culture medium in an incubator. Subsequently, 1×10^5 cells are respectively seeded in 24-well culture plate coated with poly D-lysine and the uptake test is started after the culturing.
The cells are washed with a solution for a test warmed to 37° C. and equilibrated. After a buffer solution is removed from the cells, 0.5 mL of an uptake solution containing 5 μM [^14C] uric acid with or without a test compound is respectively added and the cells are incubated. The cell uptake is stopped by adding a Hanks buffer solution and the cells are washed. The cells are lysed with 0.1 N sodium hydroxide and the radioactivity is measured using LSC6100 (Aloka Co., Ltd. Tokyo). Each uptake into HEK-URAT1 is acquired by subtracting uptake into HEK-mock cells from the value of HEK-URAT1, converting the result to per mg protein of cells, and setting the values from the uptake without the test compound as 100%.
URAT1 stably expressed HEK293 cells (HEK-URAT1) or HEK293 cells transfected with empty vector (HEK-mock) were cultured in DMEM culture medium supplemented with 10% fetal bovine serum in an incubator under conditions of 5% carbon dioxide at 37° C. Subsequently, 1×10^5 cells were respectively seeded in 24-well culture plate coated with poly D-lysine and the uptake test was started after the culturing for 3 days.
The uptake experiment of uric acid was performed at 37° C. […] After a buffer solution was removed from the cells, 0.5 mL of an uptake solution containing 5 μM [^14C] uric acid with or without a test compound was respectively added and the cells were incubated for 2 minutes. The cell uptake was stopped by adding an ice-cold Hanks buffer solution without chloride ions and the cells were washed 3 times. The cells were lysed with 0.1 N sodium hydroxide and the radioactivity was measured using LSC6100 (Aloka Co., Ltd. Tokyo). Each uptake into HEK-URAT1 was acquired by subtracting uptake into HEK-mock cells from the value of HEK-URAT1, converting the result to per mg protein of cells, and setting the value from uptake without the test compound as 100%. The uptake in each condition was performed in triplicate and each value was represented by average±standard deviation.
The URAT1 inhibitory action was measured according to the same method as in Example 118.

Chain of URAT1 (Q96S37 whole entry): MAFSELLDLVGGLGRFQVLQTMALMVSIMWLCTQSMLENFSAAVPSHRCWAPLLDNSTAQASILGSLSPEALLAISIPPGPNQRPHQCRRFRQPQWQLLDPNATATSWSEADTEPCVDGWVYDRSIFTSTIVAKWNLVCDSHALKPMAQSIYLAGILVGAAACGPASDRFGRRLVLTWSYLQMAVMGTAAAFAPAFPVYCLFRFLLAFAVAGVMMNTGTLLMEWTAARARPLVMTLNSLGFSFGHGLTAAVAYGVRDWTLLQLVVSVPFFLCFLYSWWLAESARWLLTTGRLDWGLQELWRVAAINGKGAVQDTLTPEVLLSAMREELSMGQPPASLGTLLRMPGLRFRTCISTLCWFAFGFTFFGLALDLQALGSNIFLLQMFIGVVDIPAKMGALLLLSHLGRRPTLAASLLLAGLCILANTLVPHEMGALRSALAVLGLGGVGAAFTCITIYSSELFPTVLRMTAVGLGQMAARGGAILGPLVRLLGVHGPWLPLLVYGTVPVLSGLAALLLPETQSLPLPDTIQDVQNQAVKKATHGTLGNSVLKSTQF

SMILES: CC(C)(Oc1ccc2ccccc2c1-c1ccc(C#N)c2ccccc12)C(=O)O [Example 2, 2-[(4′-Cyano-(1,1′-binaphthalene)-2-yl]oxy]-2-methylpropanoic acid]
- remaining activity at 10 µM: 45.4%
- IC50: 2060 nM

SMILES: CC(C)(Sc1ccc2ccccc2c1-c1ccc(C#N)c2ccccc12)C(=O)O [Example 4, 2-[(4′-Cyano[1,1′-binaphthalene]-2-yl)thio]-2-methylpropanoic acid]
- remaining activity at 10 µM: 15.1%
- IC50: 790 nM

SMILES: N#Cc1ccc(-c2c(O/C=C/C(=O)O)ccc3ccccc23)cc1 [Example 6, (E)-3-[[1-(4-Cyanophenyl)naphthalen-2-yl]oxy]acrylic acid]
- remaining activity at 10 µM: 5.4%

SMILES: N#Cc1ccc(-c2c(O/C=C\C(=O)O)ccc3ccccc23)cc1 [Example 7, (Z)-3-[[1-(4-Cyanophenyl)naphthalen-2-yl]oxy]acrylic acid]
- remaining activity at 10 µM: 29.5%

SMILES: CC(C)(Oc1ccc2ccccc2c1-c1cccnc1)C(=O)O [Example 8, 2-Methyl-2-[[1-(pyridin-3-yl)naphthalen-2-yl]oxy]propanoic acid]
- remaining activity at 10 µM: 61.3%

SMILES: O=C(O)/C=C/Oc1ccc2ccccc2c1-c1cccnc1 [Example 10, (E)-3-[[1-(Pyridin-3-yl)naphthalen-2-yl]oxy]acrylic acid]
- remaining activity at 10 µM: 27.1%

SMILES: CC(C)(Sc1ccc2ncccc2c1-c1ccc(C#N)cc1)C(=O)O [Example 15, 2-[[5-(4-Cyanophenyl)quinolin-6-yl]thio]-2-methylpropanoic acid]
- remaining activity at 10 µM: 50.1%
- IC50: 3440 nM

SMILES: CC(C)(Oc1ccc2ncoc2c1-c1ccc(C#N)cc1)C(=O)O [Example 17, 2-[[7-(4-Cyanophenyl)benzo[d]oxazol-6-yl]oxy]-2-methylpropanoic acid]
- remaining activity at 10 µM: 59.3%

SMILES: CC(C)(Oc1ccc2ncsc2c1-c1ccc(C#N)cc1)C(=O)O [Example 19, 2-[[7-(4-Cyanophenyl)benzo[d]thiazol-6-yl]oxy]-2-methylpropanoic acid]
- remaining activity at 10 µM: 15.6%

SMILES: N#Cc1ccc(-c2c(O/C=C/C(=O)O)ccc3ncsc23)cc1 [Example 21, (E)-3-[[7-(4-cyanophenyl)benzo[d]thiazol-6-yl]oxy]acrylic acid]
- remaining activity at 10 µM: 48.7%

SMILES: CC(C)(Sc1ccc2ncsc2c1-c1ccc(C#N)cc1)C(=O)O [Example 24, 2-[[7-(4-Cyanophenyl)benzo[d]thiazol-6-yl]thio]-2-methylpropanoic acid]
- remaining activity at 10 µM: 7.4%
- IC50: 170 nM

SMILES: CC(C)(Oc1ccc2cnsc2c1-c1ccc(C#N)cc1)C(=O)O [Example 26, 2-[[7-(4-Cyanophenyl)benzo[d]isothiazol-6-yl]oxy]-2-methylpropanoic acid]
- remaining activity at 10 µM: 11.6%

SMILES: CC(C)(Sc1ccc2cnsc2c1-c1ccc(C#N)cc1)C(=O)O [Example 28, 2-[[7-(4-Cyanophenyl)benzo[d]isothiazol-6-yl]thio]-2-methylpropanoic acid]
- remaining activity at 10 µM: 0.1%

SMILES: CC(C)(Oc1c(-c2ccc(C#N)cc2)ccc2ncsc12)C(=O)O [Example 37, 2-[[6-(4-Cyanophenyl)benzo[d]thiazol-7-yl]oxy]-2-methylpropanoic acid]
- remaining activity at 10 µM: 78.6%

SMILES: CC(C)(Sc1c(-c2ccc(C#N)cc2)cnc2ccccc12)C(=O)O [Example 45, 2-[[3-(4-Cyanophenyl)quinolin-4-yl]thio]-2-methylpropanoic acid]
- remaining activity at 10 µM: 36.5%
- IC50: 1580 nM

SMILES: CC(C)(Sc1ccc2nc(C(F)(F)F)sc2c1-c1ccc(C#N)cc1)C(=O)O [Example 60, 2-[[7-(4-Cyanophenyl)-2-(trifluoromethyl)benzo[d]thiazol-6-yl]thio]-2-methylpropanoic acid]
- remaining activity at 10 µM: 69.2%

SMILES: Cc1nc2ccc(SC(C)(C)C(=O)O)c(-c3ccc(C#N)cc3)c2s1 [Example 62, 2-[[7-(4-Cyanophenyl)-2-methylbenzo[d]thiazol-6-yl]thio]-2-methylpropanoic acid]
- remaining activity at 10 µM: 49%
